# In ChEMBL document CHEMBL5634172, “Peniditerpenoids A and B: Oxidized Indole Diterpenoids with Osteoclast Differentiation Inhibitory Activity from a Mangrove-Sediment-Derived Penicillium sp” (J Nat Prod, 2024):
# Active and inactive are the calls of the source. The rule behind the calls is not given here.
# How the values were obtained:
# [1] = test system: RAW264.7; assay: Antiinflammatory activity against mouse RAW264.7 cells stably transfected with luciferase reporter gene assessed as inhibition of LPS-induced NF-kB activation preincubated for 30 min followed by LPS stimulation for 8 hrs by luciferase based assay; format: functional, cell-based
# [2] = test system: BMDM; assay: Anti-osteoclastogenesis activity in RANKL/MCSF-induced mouse BMDM cells assessed as inhibition of osteoclast differentiation at 5 to 20 uM incubated for 3 days by TRAP-staining based microscopic analysis; format: functional, cell-based; conditions: dose 5-20 µM, time 3.0 day
# [3] = test system: RAW264.7; assay: Cytotoxicity against mouse RAW264.7 cells assessed as reduction in cell viability at 5 to 20 uM incubated for 72 hrs by MTT assay; format: toxicity, cell-based; conditions: raw264.7, 72 h, dose 5-20 µM
# [4] = target: T1, Mitogen-activated protein kinase kinase kinase 7 (Mus musculus) (UniProt Q62073); assay: Inhibition of TAK1 activation in mouse RAW264.7 cells at 5 to 20 uM preincubated for 4 hrs followed by RANKL addition and measured after 30 mins by Western blot analysis; format: cell-based; conditions: dose 5-20 µM, time 4.5 hrs
# T1 sequence (whole entry): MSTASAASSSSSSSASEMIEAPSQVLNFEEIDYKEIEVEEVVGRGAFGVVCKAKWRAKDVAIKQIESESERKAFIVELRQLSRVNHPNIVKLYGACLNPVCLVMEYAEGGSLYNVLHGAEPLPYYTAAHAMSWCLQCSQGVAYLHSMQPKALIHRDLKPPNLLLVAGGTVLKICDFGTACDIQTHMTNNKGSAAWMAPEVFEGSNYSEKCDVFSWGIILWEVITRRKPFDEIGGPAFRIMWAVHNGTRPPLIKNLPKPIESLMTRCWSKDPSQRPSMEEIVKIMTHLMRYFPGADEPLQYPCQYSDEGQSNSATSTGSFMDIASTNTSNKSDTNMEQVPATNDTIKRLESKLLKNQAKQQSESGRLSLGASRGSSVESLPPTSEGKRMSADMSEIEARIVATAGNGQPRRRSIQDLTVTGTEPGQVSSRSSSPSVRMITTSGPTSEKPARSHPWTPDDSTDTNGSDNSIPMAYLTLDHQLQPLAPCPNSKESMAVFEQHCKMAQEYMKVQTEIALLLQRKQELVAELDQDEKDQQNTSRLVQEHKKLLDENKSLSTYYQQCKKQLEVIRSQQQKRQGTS
# [5] = target: T2, NF-kappa-B inhibitor alpha (Mus musculus) (UniProt Q9Z1E3); assay: Inhibition of IkappaBalpha phosphorylation in mouse RAW264.7 cells at 5 to 20 uM preincubated for 4 hrs followed by RANKL addition and measured after 30 mins by Western blot analysis; format: cell-based; conditions: dose 5-20 µM
# T2 sequence (whole entry): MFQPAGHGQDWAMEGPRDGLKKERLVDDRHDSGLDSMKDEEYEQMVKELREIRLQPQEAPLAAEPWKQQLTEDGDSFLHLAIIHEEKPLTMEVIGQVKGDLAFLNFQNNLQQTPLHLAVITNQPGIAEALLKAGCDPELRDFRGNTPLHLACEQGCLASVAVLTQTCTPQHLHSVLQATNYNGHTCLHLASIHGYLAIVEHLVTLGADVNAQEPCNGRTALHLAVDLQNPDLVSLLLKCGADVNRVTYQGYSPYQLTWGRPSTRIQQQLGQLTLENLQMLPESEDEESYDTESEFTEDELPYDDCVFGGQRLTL
# [6] = test system: RAW264.7; assay: Upregulation of cytoplasmic p65 level in mouse RAW264.7 cells at 5 to 20 uM preincubated for 4 hrs followed by RANKL addition and measured after 30 mins by Western blot analysis; format: functional, cell-based; conditions: dose 5-20 µM, time 4.5 hrs
# [7] = test system: RAW264.7; assay: Inhibition of p65 translocation in mouse RAW264.7 cells at 5 to 20 uM preincubated for 4 hrs followed by RANKL addition and measured after 30 mins by Western blot analysis; format: cell-based; conditions: dose 5-20 µM, time 4.5 hrs
# [8] = test system: RAW264.7; assay: Inhibition of p65 translocation in mouse RAW264.7 cells at 20 uM preincubated with RANKL for 24 hrs followed by compound addition and measured after 4 hrs by immunofluorescence analysis; format: cell-based
# [9] = test system: RAW264.7; assay: Downregulation of nuclear NFATc1 expression in mouse RAW264.7 cells at 20 uM preincubated for 4 hrs followed by RANKL addition and measured after 24 hrs by Western blot analysis; format: functional, cell-based; conditions: time 28.0 hrs
IC50 [1],inhibition [4],inhibition [5],Structure (SMILES),Activity [2],Activity [3],Activity [6],inhibition [7],inhibition [8],Activity [9]
5 µM,,,Cc1ccc(S(=O)(=O)/C=C/C#N)cc1,,,,,,
11 µM,Active,Active,CC1(C)O[C@@]23CC[C@@]4(C)[C@@](O)(CC[C@@H](CC(=O)c5ccccc5N)[C@]4(C)C(=O)O)C2=CC(=O)[C@@H]1O3,Active,Non-Toxic,Active,Active,Active,Active
